Reference: US9770170B2, “Methods for diagnosing, treating, and monitoring chronic inflammatory response syndrome” (priority 2012, dated 2017)

Legend:
[1] = system: patients with clinically-confirmed CIRS-WDB; experiment: Open-label VIP replacement trial: physician recorded symptoms; type: in vivo, human; conditions: for SX (symptoms) mean value: Control 2.9, Base 29.8, AC2 17.8
Source text: (§1) 3A. Treatment: Human research approval for this study was provided by Copernicus Group IRB, Cary, N.C. […] Further, certain patients were excluded from the trial for the following reason. […] Patients with these findings were excluded from the formal replacement trial.
(§2) All patients enrolled in the trial were confirmed to be exposed to WDB by observation of illness acquisition solely following water intrusion followed by either (1) visible microbial growth; (2) specification of molds by QPCR DNA testing; or (3) musty smells. All patients met the case criteria established by the GAO (US GAO 2008). Patients were known to the clinic with a 36-month mean duration of prior treatment following exposure to WDB.
(§3) For the experimental protocol, subjects self-administered 50 mcg VIP (Aviptadil; Bachem AG, Switzerland) four times a day via nasal aerosol and returned to the clinic to review symptoms and clinical course, and undergo interval physical exam and laboratory exam at scheduled intervals. Clinical data were collected before any treatments, or baseline (BASE); after all other treatments and before VIP (AC2); after 12 months of VIP (12M); and after 18 months of VIP (18M). Data collection included physician recorded symptoms in a medical history (Table 2); levels of VIP, MSH, C4a, TGF beta-1, VEGF, MMP9, estradiol, testosterone, 25-0H vitamin D, lipase, CBC and CMP. Measurement of CD4+CD25+T regulatory (Treg) cells was not available at BASE; Treg testing was performed at AC2 and 18 month time periods. Laboratory testing for all analytes was performed by high complexity CLIA-certified labs including LabCorp and Quest Diagnostics. All data were compared to either established normative values or values from prior testing of healthy control populations (N=850) performed at this clinic. Data were analyzed by two-sample T-tests for each of two study time points and one-sample T-tests that compared the specified data to the corresponding historical control values. A Bonferroni correction to the p-values was done to control the experiment-wise error rate. A p value of <0.001 was chosen as the determinant of significance for the study.

[2] = system: patients with clinically-confirmed CIRS-WDB; experiment: Open-label VIP replacement trial: laboratory parameters (CLIA labs); conditions: for Estra-M (estradiol in males) mean value: Control 23.1, Base 36, AC2 30.3; for VIP level mean value: Control 28.9, Base 9.3, AC2 14.4; for Estra-F (estradiol in females) mean value: Control 29.8, Base 28, AC2 26.6; for Lipase mean value: Control 30.1, Base 24.2, AC2 30.8; for MSH mean value: Control 37.2, Base 9.4, AC2 16.8; for VIT D (25-OH vitamin D) mean value: Control 38.4, Base 19.4, AC2 24.1; for VEGF mean value: Control 65, Base 61, AC2 95.3; for Test-F (testosterone in females) mean value: Control 282, Base 20, AC2 18.9; for MMP-9 mean value: Control 332, Base 628, AC2 358; for Test-M (testosterone in males) mean value: Control 415, Base 298.8, AC2 293.5; for TGF (TGF beta-1) mean value: Control 2380, Base 12579, AC2 13015; for C4a mean value: Control 2830, Base 8346, AC2 4662
Source text: as §1, §2, §3

[3] = system: patients with clinically-confirmed CIRS-WDB; experiment: Stress echocardiography, pulmonary artery systolic pressure (PASP) in exercise; type: in vivo, human; conditions: all subjects, within two months; entry criterion rise exceeding 8 mm Hg versus resting PASP
Source text: Entry criteria also included a rise in pulmonary artery systolic pressure (PASP) in exercise as measured by stress echocardiography that exceeded 8 mm Hg as compared to resting PASP. Standard Bruce protocols were employed during stress echocardiography testing. […] All patients achieved target heart rate; none developed ischemic changes on EKG or chest pain during stress testing.

[4] = system: patients with clinically-confirmed CIRS-WDB; experiment: Open-label VIP replacement trial: safety and tolerability
Source text: as §3

human volunteers = experiment: Initial use of low dose VIP by nasal instillation (earlier trials)
Source text: as §1

CD4+CD25+ Treg cells = experiment: Flow cytometry of CD4+CD25+ T regulatory (Treg) cells; type: in vivo, human; conditions: 18 month versus AC2, increase from a mean of 8.9
Source text: CD4^+ CD25^+ Treg cells in CIRS patients can be measured by flow cytometry. CD4^+ CD25^+ Treg cells mature in response to an inflammatory stimulation, and in particular, in response to increasing levels of TGF-β1. Matured CD4^+ CD25^+ Treg cells migrate to tissues to suppress inflammation and autoimmunity. However, if there is a pre-existing inflammatory response ongoing in tissues, CD4^+ CD25^+ Treg cells may turn into autoreactive T cells. Therefore, the determination of CD4^+ CD25^+ Treg cells in blood as well as in tissues may be helpful in assessing the status of inflammation in CIRS patients.

[5] = initial use of low dose VIP by nasal instillation

SMILES: CC[C@H](C)[C@H](NC(=O)[C@H](CO)NC(=O)[C@H](CC(N)=O)NC(=O)[C@H](CC(C)C)NC(=O)[C@H](Cc1ccc(O)cc1)NC(=O)[C@H](CCCCN)NC(=O)[C@H](CCCCN)NC(=O)[C@@H](NC(=O)[C@H](C)NC(=O)[C@H](CCSC)NC(=O)[C@H](CCC(N)=O)NC(=O)[C@H](CCCCN)NC(=O)[C@H](CCCNC(=N)N)NC(=O)[C@H](CC(C)C)NC(=O)[C@H](CCCNC(=N)N)NC(=O)[C@@H](NC(=O)[C@H](Cc1ccc(O)cc1)NC(=O)[C@H](CC(N)=O)NC(=O)[C@H](CC(=O)O)NC(=O)[C@@H](NC(=O)[C@H](Cc1ccccc1)NC(=O)[C@@H](NC(=O)[C@H](C)NC(=O)[C@H](CC(=O)O)NC(=O)[C@H](CO)NC(=O)[C@@H](N)Cc1c[nH]cn1)C(C)C)[C@@H](C)O)[C@@H](C)O)C(C)C)C(=O)N[C@@H](CC(C)C)C(=O)N[C@@H](CC(N)=O)C(N)=O [VIP, Aviptadil]
- Quality of life ([1]; 20 patients, open-label trial): enhanced quality of life
- SX (symptoms) mean value ([1]; after 12 months of VIP, 50 mcg four times a day nasal aerosol): 5.5
- SX (symptoms) mean value ([1]; after 18 months of VIP): 3.4
- Symptom reduction versus controls ([1]; all treated patients): Symptom reduction to equal those of controls
- Inflammatory parameters versus controls ([2]; VIP nasal spray, open-label trial): not significantly different from controls
- Estra-M (estradiol in males) mean value ([2]; after 12 months of VIP): 27.7
- VIP level mean value ([2]; after 12 months of VIP): 12.3
- Estra-F (estradiol in females) mean value ([2]; after 12 months of VIP): 27.8
- Lipase mean value ([2]; after 12 months of VIP): 30.7
- MSH mean value ([2]; after 12 months of VIP): 17.3
- VIT D (25-OH vitamin D) mean value ([2]; after 12 months of VIP): 38.3
- VEGF mean value ([2]; after 12 months of VIP): 73.4
- Test-F (testosterone in females) mean value ([2]; after 12 months of VIP): 22.6
- MMP-9 mean value ([2]; after 12 months of VIP): 302
- Test-M (testosterone in males) mean value ([2]; after 12 months of VIP): 546.7
- TGF (TGF beta-1) mean value ([2]; after 12 months of VIP): 5359
- C4a mean value ([2]; after 12 months of VIP): 5679
- Estra-M (estradiol in males) mean value ([2]; after 18 months of VIP): 22.8
- VIP level mean value ([2]; after 18 months of VIP): 16.6
- Estra-F (estradiol in females) mean value ([2]; after 18 months of VIP): 28.9
- Lipase mean value ([2]; after 18 months of VIP): 27.9
- MSH mean value ([2]; after 18 months of VIP): 18.2
- VIT D (25-OH vitamin D) mean value ([2]; after 18 months of VIP): 39.3
- VEGF mean value ([2]; after 18 months of VIP): 66.2
- Test-F (testosterone in females) mean value ([2]; after 18 months of VIP): 25.2
- MMP-9 mean value ([2]; after 18 months of VIP): 290
- Test-M (testosterone in males) mean value ([2]; after 18 months of VIP): 511.5
- TGF (TGF beta-1) mean value ([2]; after 18 months of VIP): 4040
- C4a mean value ([2]; after 18 months of VIP): 3306
- Patient values versus controls by the end of the trial (symptoms, MSH, VIP, MMP9, C4a, TGF-β1, 25-OH Vitamin D, testosterone in males) ([2]; end of the trial, baseline differed from controls at p<0.01): not statistically different from controls, except for VIP and MSH
- Elevated PASP in stress exercise testing reduced to [3]: < 8 mm Hg
- Tolerability ([4]; 18 month study, 20 patients, nasal aerosol): tolerated the drug well
- Changes in CBC and CMP ([4]; during the trial): No changes
- Dropouts due to adverse effects ([4]; over the course of the 18 month study): no dropouts due to adverse effects
- Elevated lipase, cases ([4]; resolved without cessation of use of VIP): One patient had a transient elevated level of lipase without abdominal pain
- Lipase levels during the trial ([4]; whole cohort): did not rise
- Safety of low dose VIP by nasal instillation (human volunteers; human volunteers, initial use): shown to be safe
- Effect on pulmonary artery responses to exercise (human volunteers; [5]): blunted accentuated pulmonary artery responses to exercise
- Effect on symptoms (human volunteers; [5]): prompt reduction in symptoms
- CD4+CD25+ Treg cells, mean (CD4+CD25+ Treg cells): 22.5
